In test [1] the target is T1, WRN [UniPro: Q14191 (WRN_HUMAN), N500-C946] (Homo sapiens (Human), UniProt Q14191). The test can be described thus: WRN ATPase assay (ADP-Glo). The note with it: WRN enzymatic activity assay. Type of test: biochemical. How it is done: WRN ATPase assay was initiated to evaluate potential inhibitory effect of compounds for ATP hydrolysis activity of WRN protein. WRN [UniPro: Q14191 (WRN_HUMAN), N500-C946] was expressed and purified in insect system and stored at −80° C. in aliquots. […] ADP quantity produced from ATP hydrolysis by WRN catalytic reaction was measured using a commercially available ADP-Glo Assay (ADP-Glo™ Kinase Assay from Promega, 10000 assays, #V9102). […] Compounds dissolved in DMSO (Sigma, D8418) were plated into a 96-well intermediate plate (BioFil, VWP-032-096) for 3-fold serial titration for 10 points using DMSO, and well-to-well transfer the titrated compounds into another 96-well intermediate plate including assay buffer in advance. Shake the 96-well intermediate plate at 600 rpm for 10 min to fully mix. Specifically, a 4× working mixture of WRN was diluted to a concentration of 8 nM in assay buffer. […] After centrifuging at 1000 rpm and shaking at 500 rpm, the assay plate was pre-incubated for 30 min. Then, 5 μL 2×FORKF DNA and ATP working mixture was dispensed into assay plate. Plate was sealed, centrifuged and incubated for an additional 40 min. at 37° C. The reaction was stopped with the addition of 10 μL of the first ADP-Glo reagent and incubated for 40 min. to remove the excess amount of ATP. Afterwards, 20 μL of ATP detection reagent was added and incubated for 30 min. before reading. Luminescence output was recorded using BMG CLARIO star plus reader. Each concentration of compound was tested in duplicates in the assay plate. Average luminescence signal of high control (Wells with 1% DMSO) was calculated as High Control (HC). Average luminescence signal of low control (Wells with no WRN protein) was calculated as Low control (LC).
IC50 values were determined by fitting the data to the standard 4 parameters with Hill Slope using GraphPad Prism software.
Background: ADP-Glo first removes unused ATP, then detects ADP through luciferase.

The target in test [2] is T1, WRN [UniPro: Q14191 (WRN_HUMAN), N500-C946]. Briefly: WRN unwinding assay (FORKF DNA, fluorescence). Type of test: biochemical. The note with it: Table 14.

For 14 compounds, IC50 results are on record in US20260015358A1, “BICYCLIC DERIVATIVES, COMPOSITIONS AND USES THEREOF” (Danatlas Pharmaceuticals Co., Ltd., priority 2023, published 2026).

pIC50: −log10 of the molar value.

T1 sequence (Q14191 500-946): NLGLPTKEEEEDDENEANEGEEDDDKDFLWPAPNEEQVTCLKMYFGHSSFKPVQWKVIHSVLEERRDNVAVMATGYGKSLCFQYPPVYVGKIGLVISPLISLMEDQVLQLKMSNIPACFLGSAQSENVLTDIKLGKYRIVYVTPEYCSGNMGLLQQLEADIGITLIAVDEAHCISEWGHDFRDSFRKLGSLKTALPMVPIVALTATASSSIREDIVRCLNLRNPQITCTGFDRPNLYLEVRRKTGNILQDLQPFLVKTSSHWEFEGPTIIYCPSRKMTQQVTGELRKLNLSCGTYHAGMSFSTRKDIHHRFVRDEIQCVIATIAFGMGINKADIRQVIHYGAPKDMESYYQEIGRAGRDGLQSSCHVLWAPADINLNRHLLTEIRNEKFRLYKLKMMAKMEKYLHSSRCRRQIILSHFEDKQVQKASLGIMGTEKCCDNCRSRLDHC

Turning to `CCNC(=NCCCN(C)C)N1CCN(c2c(CC)n(CC(=O)Nc3ccc(C(F)(F)F)cc3C)c3nc(C4=CCOCC4)nn3c2=O)CC1` [Example 5, 2-(2-(3,6-Dihydro-2H-pyran-4-yl)-6-(4-(N′-(3-(dimethylamino)propyl)-N-ethylcarbamimidoyl)piperazin-1-yl)-5-ethyl-7-oxo-[1,2,4]triazolo[1,5-a]pyrimidin-4(7H)-yl)-N-(2-methyl-4-(trifluoromethyl)phenyl)acetamide], the pIC50 in test [1] and in test [2] was below 6.00 each time.
Consider `CCc1c(N2CCN(C(=O)c3sc4cnccc4c3N)CC2)c(=O)n2nc(C3=CCOCC3)nc2n1CC(=O)Nc1ccc(C(F)(F)F)cc1Cl` [Example 6, 2-(6-(4-(3-Aminothieno[2,3-c]pyridine-2-carbonyl)piperazin-1-yl)-2-(3,6-dihydro-2H-pyran-4-yl)-5-ethyl-7-oxo-[1,2,4]triazolo[1,5-a]pyrimidin-4(7H)-yl)-N-(2-chloro-4-(trifluoromethyl)phenyl)acetamide], for which the negative logarithm of the IC50 (pIC50) (as a rule, −log10 of the IC50, conventionally taken in molar units) in test [1] was 6.00 to 7.00; in test [2], above 7.00.
On the same counts, the results for `CCc1c(N2CCN(c3nnc(C(F)F)s3)CC2)c(=O)n2nc(C3=CCOCC3)nc2n1CC(=O)Nc1ccc(C(F)(F)F)cc1Cl` [Example 8, N-(2-Chloro-4-(trifluoromethyl)phenyl)-2-(6-(4-(5-(difluoromethyl)-1,3,4-thiadiazol-2-yl)piperazin-1-yl)-2-(3,6-dihydro-2H-pyran-4-yl)-5-ethyl-7-oxo-[1,2,4]triazolo[1,5-a]pyrimidin-4(7H)-yl)acetamide] are below 6.00 and below 6.00.
The like results for `CCc1c(N2CCN(C(=O)c3cc(-c4cc(OC)ncc4F)[nH]n3)CC2)c(=O)n2nc(C3=CCOCC3)nc2n1CC(=O)Nc1ccc(C(F)(F)F)cc1Cl` [Example 9, N-(2-Chloro-4-(trifluoromethyl)phenyl)-2-(2-(3,6-dihydro-2H-pyran-4-yl)-5-ethyl-6-(4-(5-(5-fluoro-2-methoxypyridin-4-yl)-1H-pyrazole-3-carbonyl)piperazin-1-yl)-7-oxo-[1,2,4]triazolo[1,5-a]pyrimidin-4(7H)-yl)acetamide] were, in that order, 6.00 to 7.00 and below 6.00.
For `CCc1c(N2CCN(S(=O)(=O)CC)CC2)c(=O)n2nc(C3=CCOCC3)nc2n1CC(=O)Nc1ccc(C(F)(F)F)cc1Cl` [Example 11, N-(2-Chloro-4-(trifluoromethyl)phenyl)-2-(2-(3,6-dihydro-2H-pyran-4-yl)-5-ethyl-6-(4-(ethylsulfonyl)piperazin-1-yl)-7-oxo-[1,2,4]triazolo[1,5-a]pyrimidin-4(7H)-yl)acetamide], the pIC50 in test [1] is 6.00 to 7.00; in test [2] it was below 6.00.
The like results for `CCc1c(N2CCN(C(=O)NS(=O)(=O)c3cnn(C)c3)CC2)c(=O)n2nc(C3=CCOCC3)nc2n1CC(=O)Nc1ccc(C(F)(F)F)cc1Cl` [Example 14, 4-(4-(2-((2-Chloro-4-(trifluoromethyl)phenyl)amino)-2-oxoethyl)-2-(3,6-dihydro-2H-pyran-4-yl)-5-ethyl-7-oxo-4,7-dihydro-[1,2,4]triazolo[1,5-a]pyrimidin-6-yl)-N-((1-methyl-1H-pyrazol-4-yl)sulfonyl)piperazine-1-carboxamide] were, in that order, above 7.00 and above 7.00.
For `CCc1c(N2CCN(C(=O)c3ncnc4cn[nH]c34)CC2)c(=O)n2nc(C3=CCOCC3)nc2n1CC(=O)Nc1ccc(C(F)(F)F)cc1Cl` [Example 17, 2-(6-(4-(1H-Pyrazolo[4,3-d]pyrimidine-7-carbonyl)piperazin-1-yl)-2-(3,6-dihydro-2H-pyran-4-yl)-5-ethyl-7-oxo-[1,2,4]triazolo[1,5-a]pyrimidin-4(7H)-yl)-N-(2-chloro-4-(trifluoromethyl)phenyl)acetamide], the pIC50 in test [1] and in test [2] was above 7.00 in each case.
Take `CCc1c(N2CCN(C(=O)Nc3[nH]ncc3C(F)(F)F)CC2)c(=O)n2nc(C3=CCOCC3)nc2n1CC(=O)Nc1ccc(C(F)(F)F)cc1Cl` [Example 18, 4-(4-(2-((2-Chloro-4-(trifluoromethyl)phenyl)amino)-2-oxoethyl)-2-(3,6-dihydro-2H-pyran-4-yl)-5-ethyl-7-oxo-4,7-dihydro-[1,2,4]triazolo[1,5-a]pyrimidin-6-yl)-N-(4-(trifluoromethyl)-1H-pyrazol-5-yl)piperazine-1-carboxamide]: the pIC50 in test [1] and in test [2] was 6.00 to 7.00 in each case.
As to `CCc1c(N2CCN(C(=O)c3[nH]ncc3C(F)(F)F)CC2)c(=O)n2nc(C3=CCOCC3)nc2n1CC(=O)Nc1ccc(C(F)(F)F)cc1Cl` [Example 19, N-(2-Chloro-4-(trifluoromethyl)phenyl)-2-(2-(3,6-dihydro-2H-pyran-4-yl)-5-ethyl-7-oxo-6-(4-(4-(trifluoromethyl)-1H-pyrazole-5-carbonyl)piperazin-1-yl)-[1,2,4]triazolo[1,5-a]pyrimidin-4(7H)-yl)acetamide], the pIC50 in test [1] and in test [2] was below 6.00 each time.
Regarding `CCc1c(N2CCN(C(=O)c3n[nH]c(=O)[nH]c3=O)CC2)c(=O)n2nc(C3=CCOCC3)nc2n1CC(=O)Nc1ccc(C(F)(F)F)cc1Cl` [Example 22, N-(2-Chloro-4-(trifluoromethyl)phenyl)-2-(2-(3,6-dihydro-2H-pyran-4-yl)-6-(4-(3,5-dioxo-2,3,4,5-tetrahydro-1,2,4-triazine-6-carbonyl)piperazin-1-yl)-5-ethyl-7-oxo-[1,2,4]triazolo[1,5-a]pyrimidin-4(7H)-yl)acetamide], the pIC50 in test [1] and in test [2] was above 7.00 throughout.
As for `CCc1c(N2CCN(c3noc4cccnc34)CC2)c(=O)n2nc(C3=CCOCC3)nc2n1CC(=O)Nc1ccc(C(F)(F)F)cc1Cl` [Example 23, N-(2-Chloro-4-(trifluoromethyl)phenyl)-2-(2-(3,6-dihydro-2H-pyran-4-yl)-5-ethyl-6-(4-(isoxazolo[4,5-b]pyridin-3-yl)piperazin-1-yl)-7-oxo-[1,2,4]triazolo[1,5-a]pyrimidin-4 (7H)-yl)acetamide], the pIC50 in test [1] and in test [2] was below 6.00 throughout.
For the compound `CCc1c(N2CCN(C(=O)NS(=O)(=O)CC)CC2)c(=O)n2nc(C3=CCOCC3)nc2n1CC(=O)Nc1ccc(C(F)(F)F)cc1Cl` [Example 25, 4-(4-(2-((2-Chloro-4-(trifluoromethyl)phenyl)amino)-2-oxoethyl)-2-(3,6-dihydro-2H-pyran-4-yl)-5-ethyl-7-oxo-4,7-dihydro-[1,2,4]triazolo[1,5-a]pyrimidin-6-yl)-N-(ethylsulfonyl)piperazine-1-carboxamide], the pIC50 in test [1] and in test [2] was above 7.00 throughout.
As for `CCC(=O)N1CCN(c2c(CC)n(CC(=O)Nc3ccc(C(F)(F)F)cc3Cl)c3nc(C4=CCOCC4)nn3c2=O)CC1` [Example 27, N-(2-Chloro-4-(trifluoromethyl)phenyl)-2-(2-(3,6-dihydro-2H-pyran-4-yl)-5-ethyl-7-oxo-6-(4-propionylpiperazin-1-yl)-[1,2,4]triazolo[1,5-a]pyrimidin-4(7H)-yl)acetamide], the pIC50 is 6.00 to 7.00 in test [1] and above 7.00 in test [2].
The like results for `CCc1c(N2CCN(S(N)(=O)=O)CC2)c(=O)n2nc(C3=CCOCC3)nc2n1CC(=O)Nc1ccc(C(F)(F)F)cc1Cl` [Example 28, N-(2-Chloro-4-(trifluoromethyl)phenyl)-2-(2-(3,6-dihydro-2H-pyran-4-yl)-5-ethyl-7-oxo-6-(4-sulfamoylpiperazin-1-yl)-[1,2,4]triazolo[1,5-a]pyrimidin-4(7H)-yl)acetamide] were, in that order, 6.00 to 7.00 and 6.00 to 7.00.
